According to patent US4661487A (priority 1984, dated 1987):
Values joined by “and” are separate entries in the source; they are usually repeats but may differ in a detail not shown here. Equal entries are not always repeated. Structures can show the parent of a compound that is named as a salt.

How the values were obtained:
[1] = system: spontaneously hypertensive rats; test: Heart rate-modifying action in spontaneously hypertensive rats; format: in vivo, spontaneously hypertensive rats (SHR rats)
Protocol: (§1) The substances were administered orally with a probang to fasting spontaneously hypertensive rats. The animals were fasted 17 hours before the start of the experiment. All the substances were dissolved in 1% strength carboxymethylcellulose (MH 300), and the administration volume was 10 ml/kg. The starting values of the blood pressure and heart rate were recorded directly before the administration. The action of the substance was measured 1, 2, 4, 7 and 24 hours after the administration. The measurement was performed non-invasively with a W+W Recorder 8002, it being possible to measure the systolic blood pressure and the heart rate. The animals were offered food again 4 hours after administration of the substance. The values can be seen from Table 1, page 5. […] The experiment was carried out by the same method as in Example 1, and the values can be seen in Table 2.

[2] = system: spontaneously hypertensive rats; test: Hypotensive action (systolic blood pressure, W+W Recorder 8002) in spontaneously hypertensive rats; format: in vivo, spontaneously hypertensive rats (SHR rats)
Protocol: as §1

[3] = system: collagen-induced aggregation of human platelets; test: Inhibition of collagen-induced aggregation of human platelets in vitro (method of Born, platelet-rich human plasma); format: cell-based
Protocol: Inhibition of the collagen-induced aggregation of human platelets by the combination of 4,5-dihydro-6-[4-(1-imidazolyl)-thien-2-yl]-5-methyl-3(2H)-pyridazinone hydrochloride (D) with lofexidine (A).
The inhibition of collagen-induced platelet aggregation in vitro was carried out by the method of Born (Nature, 194, 927-929 (1962)) on platelet-rich human plasma with 4,5-dihydro-6-[4-(1-imidazolyl)-thien-2-yl]-5-methyl-3(2H)-pyridazinone hydrochloride (D), lofexidine (A) and with mixtures of A and D.
In each case the mean value of 4 independent determinations has been given. In the investigations of the mixtures, the concentration of A was constant at 1×10^-5 mole/l.

[4] = peripheral vasodilation; cited from earlier work

**Q.** With `CC1CC(=O)NN=C1c1ccc(-n2ccnc2)cc1` (stereo not drawn) [Substance B, 4,5-dihydro-6-[4-(1-imidazolyl)-phenyl]-5-methyl-3(2H)-pyridazinone] as the compound, how does the “Heart rate, Δ after administration of the substance” value (“Heart rate, Δ after administration” below) ([1]; 10.0 mg/kg p.o., 1 hour) read?
**A.** +113 ± 14 beats/minute

**Q.** What about the “Heart rate, Δ after administration” value ([1]; 10.0 mg/kg p.o., 2 hours) of the same compound?
**A.** +108 ± 10 beats/minute

**Q.** What about the “Heart rate, Δ after administration” value ([1]; 10.0 mg/kg p.o., 4 hours) of the same compound?
**A.** +85 ± 21 beats/minute

**Q.** And the “Heart rate, Δ after administration” value ([1]; 10.0 mg/kg p.o., 7 hours)?
**A.** +129 ± 24 beats/minute

**Q.** And the “Heart rate, Δ after administration” value ([1]; 10.0 mg/kg p.o., 24 hours)?
**A.** +16 ± 16 beats/minute

**Q.** What about the “Systolic blood pressure, Δ after administration of the substance” value (“Systolic blood pressure, Δ” below) ([2]; 10.0 mg/kg p.o., 1 hour) of the same compound?
**A.** -95.4 ± 3.4 mmHg

**Q.** And the “Systolic blood pressure, Δ” value ([2]; 10.0 mg/kg p.o., 2 hours)?
**A.** -97.2 ± 4.6 mmHg

**Q.** What about the “Systolic blood pressure, Δ” value ([2]; 10.0 mg/kg p.o., 4 hours) of the same compound?
**A.** -98.4 ± 5.6 mmHg

**Q.** And the “Systolic blood pressure, Δ” value ([2]; 10.0 mg/kg p.o., 7 hours)?
**A.** -93.0 ± 5.6 mmHg

**Q.** What about the “Systolic blood pressure, Δ” value ([2]; 10.0 mg/kg p.o., 24 hours) of the same compound?
**A.** -35.8 ± 6.6 mmHg

**Q.** What does the source list for `CC1CC(=O)NN=C1c1cc(-n2ccnc2)cs1` (stereo not drawn) [Substance C, 4,5-dihydro-6-[4-(1-imidazolyl)-thien-2-yl]-5-methyl-3(2H)-pyridazinone]?
**A.** Heart rate, Δ after administration of the substance ([1]; 10.0 mg/kg p.o., 1 hour): +104 ± 21 beats/minute; Heart rate, Δ after administration of the substance ([1]; 10.0 mg/kg p.o., 2 hours): +91 ± 10 beats/minute; Heart rate, Δ after administration of the substance ([1]; 10.0 mg/kg p.o., 4 hours): +70 ± 12 beats/minute; Heart rate, Δ after administration of the substance ([1]; 10.0 mg/kg p.o., 7 hours): +36 ± 13 beats/minute; Systolic blood pressure, Δ after administration of the substance ([2]; 10.0 mg/kg p.o., 1 hour): -48.1 ± 16.2 mmHg; Systolic blood pressure, Δ after administration of the substance ([2]; 10.0 mg/kg p.o., 2 hours): -66.2 9.9 mmHg; Systolic blood pressure, Δ after administration of the substance ([2]; 10.0 mg/kg p.o., 4 hours): -93.9 ± 6.8 mmHg; Systolic blood pressure, Δ after administration of the substance ([2]; 10.0 mg/kg p.o., 7 hours): -98.9 ± 9.1 mmHg

**Q.** Which IC50 ([3]; Homo sapiens, Platelet, read-out: concentration for a half-maximum inhibition (IC50) of the collagen-induced platelet aggregation) does the source give for `CC1CC(=O)NN=C1c1cc(-n2ccnc2)cs1` (stereo not drawn) [Substance D, 4,5-dihydro-6-[4-(1-imidazolyl)-thien-2-yl]-5-methyl-3(2H)-pyridazinone hydrochloride] here?
**A.** 46 nM

**Q.** Which “side effect in hypertension therapy” value [4] does the source give for `NNc1nnc(NN)c2ccccc12` [dihydralazine] here?
**A.** reflex tachycardia

**Q.** Which “side effect in hypertension therapy” value [4] does the source give for `NNc1nncc2ccccc12` [hydralazine] here?
**A.** reflex tachycardia

**Q.** Which “% inhibition of collagen-induced platelet aggregation” value ([3]; A at 1 × 10^-5 mole/l, D 0, mean of 4 determinations) does the source give for `CC(Oc1c(Cl)cccc1Cl)C1=NCCN1.Cl` (racemic) [Substance A, (±)-2-[1-(2,6-dichlorophenoxy)-ethyl]-1,3-diazacyclopent-2-ene hydrochloride] here?
**A.** 3%

**Q.** What about the “Heart rate, Δ after administration” value ([1]; 0.1 mg/kg p.o., 1 hour) of the same compound?
**A.** +10 ± 13 beats/minute

**Q.** What about the “Heart rate, Δ after administration” value ([1]; 0.1 mg/kg p.o., 2 hours) of the same compound?
**A.** +37 ± 27 beats/minute

**Q.** And the “Heart rate, Δ after administration” value ([1]; 0.1 mg/kg p.o., 4 hours)?
**A.** +12 ± 12 beats/minute

**Q.** And the “Heart rate, Δ after administration” value ([1]; 0.1 mg/kg p.o., 7 hours)?
**A.** -14 ± 12 beats/minute

**Q.** And the “Heart rate, Δ after administration” value ([1]; 1.0 mg/kg p.o., 1 hour, hydrochloride)?
**A.** -22 ± 18 beats/minute and -22 ± 8 beats/minute

**Q.** What about the “Heart rate, Δ after administration” value ([1]; 1.0 mg/kg p.o., 2 hours) of the same compound?
**A.** -6 ± 13 beats/minute

**Q.** And the “Heart rate, Δ after administration” value ([1]; 1.0 mg/kg p.o., 4 hours)?
**A.** -2 ± 15 beats/minute

**Q.** What about the “Heart rate, Δ after administration” value ([1]; 1.0 mg/kg p.o., 7 hours) of the same compound?
**A.** -10 ± 16 beats/minute

**Q.** What about the “Systolic blood pressure, Δ” value ([2]; 0.1 mg/kg p.o., 1 hour) of the same compound?
**A.** -18.8 ± 16.6 mmHg

**Q.** What about the “Systolic blood pressure, Δ” value ([2]; 0.1 mg/kg p.o., 2 hours) of the same compound?
**A.** -4.0 ± 18.6 mmHg

**Q.** And the “Systolic blood pressure, Δ” value ([2]; 0.1 mg/kg p.o., 4 hours)?
**A.** -11.8 ± 23.2 mmHg

**Q.** And the “Systolic blood pressure, Δ” value ([2]; 0.1 mg/kg p.o., 7 hours)?
**A.** -10.8 ± 26.9 mmHg

**Q.** And the “Systolic blood pressure, Δ” value ([2]; 1.0 mg/kg p.o., 1 hour)?
**A.** -28.4 ± 13.1 mmHg

**Q.** And the “Systolic blood pressure, Δ” value ([2]; 1.0 mg/kg p.o., 2 hours)?
**A.** -22.8 ± 11.8 mmHg

**Q.** And the “Systolic blood pressure, Δ” value ([2]; 1.0 mg/kg p.o., 4 hours)?
**A.** -23.6 ± 15.5 mmHg

**Q.** And the “Systolic blood pressure, Δ” value ([2]; 1.0 mg/kg p.o., 7 hours)?
**A.** -22.2 ± 17.4 mmHg

**Q.** Which “side effect in hypertension therapy” value [4] does the source give for `Nc1cc(N2CCCCC2)nc(N)[n+]1[O-]` [minoxidil] here?
**A.** reflex tachycardia
